From patent US10239878B2, “Macrocyclic ligands with pendant chelating moieties and complexes thereof” (LUMIPHORE, INC., priority 2016, dated 2019)

What was measured:
Format in all cases: physicochemical
[1] = Europium titration experiments for determining extinction coefficients
Description: In order to determine accurate extinction coefficients for 16 and 16⋅Eu, titration experiments using europium chloride as the titrant were performed. Europium chloride hexahydrate (13.22 mg, 0.03608 mmol) was dissolved into 5 mM citrate buffer (pH=4) using a 100 mL volumetric flask to give a 0.3608 mM europium chloride solution, which was then titrated into a 0.5 mL solution of 16 in TBS buffer (Tris-buffered saline, 50 mM Tris, 150 mM NaCl, pH=7.6) using 5 μL aliquots. The UV-vis spectra were adjusted for the increase in solvent volume due to each injection. The results of the UV-vis titration are plotted in FIG. 3.
The volume of europium chloride corresponds to 16.70 nmol of europium, meaning the starting concentration of ligand 16 was 33.40 μM. […] These absorbance and concentration values yield extinction coefficients of 13,600 M^−1 cm^−1 and 14,300 M^−1 cm^−1 for the ligand 16 and the complex 16⋅Eu respectively.
In order to determine accurate extinction coefficients for 43 and 43⋅Eu, titration experiments using europium chloride as the titrant were performed. Europium chloride hexahydrate (47.58 mg, 0.1299 mmol) was dissolved into 50 mM citrate buffer (pH=4) using a 10 mL volumetric flask to give a 12.99 mM europium chloride solution, which was then transferred to a 100 mL volumetric flask and diluted 1:10 with water. The resulting 1.299 mM europium chloride solution (in 5 mM citrate buffer) was then titrated into a 1 mL solution of 43 in TBS buffer using 5 μL aliquots. The UV-vis spectra were adjusted for the increase in solvent volume due to each injection. The results of the UV-vis titration are plotted in FIG. 4.
The volume of europium chloride corresponds to 47.46 nmol of europium, meaning the starting concentration of ligand 43 was 47.46 μM. […] These absorbance and concentration values yield extinction coefficients of 13,000 M^−1 cm^−1 and 12,800 M^−1 cm^−1 for the ligand and complex respectively.
Titration of ligand 43 was also performed by luminescence (FIG. 5), monitoring the europium signal at 612 nm upon photoexcitation of the solution at 340 nm. The ligand solution used for the UV-vis titration of 43 mentioned above was first diluted 1:10 in TBS buffer. Similarly, the 1.299 mM stock europium solution was separately diluted 1:10 with water. […] The 32.99 μL equivalence point gives extinction coefficients of 14,400 M^−1 cm^−1 at 383 nm and 14,200 M^−1 cm^−1 at 357 nm for 43 and 43⋅Eu respectively. Averaging the values from both UV-vis and luminescence titration experiments of 43 yields extinction coefficients of 13,700 M^−1 cm^−1 at 383 nm and 13,500 M^−1 cm^−1 at 357 nm for 43 and 43⋅Eu respectively.

[2] = Photophysical characterization of Eu complexes (UV-vis absorption, quantum yield, lifetime)
Description: The europium complexes of ligands 16, 29, 33, 40, and 43 were prepared by separately dissolving each ligand (2 mg) into methanol (200 μL). Excess europium chloride hexahydrate (˜5 equivalents) was dissolved in methanol (200 μL) and the full volume was added to each of the ligand solutions. The solvent was removed, and the residue was dissolved into DMF (50 μL). The europium complexes were then purified by semi-prep HPLC on an Agilent 1260 Infinity instrument using an Eclipse XDB-C18 column (5 μm, 9.4×250 mm). The mobile phase was 10 to 30% acetonitrile in water containing 0.1% trifluoroacetic acid. The volatiles were removed from the HPLC eluents under vacuum, and the residues were separately dissolved into methanol (500 μL) to give methanolic stock solutions of each europium complex with greater than 98% purity. A few drops of these methanolic solutions were evaporated to dryness, and then the residue was dissolved into TBS buffer at a concentration of ca. 3 μM to make aqueous stock solutions (20 mL) with an absorbance of 0.05 (1 cm path length) at 365 nm. Five dilutions (1/6, 2/6, 3/6, 4/6, and 5/6) were made from these aqueous stock solutions to yield six samples with evenly spaced concentrations (3 mL volume each). Quinine sulfate dissolved in 0.05 M sulfuric acid was similarly diluted to a final absorbance of 0.05 at 365 nm, and this solution was similarly (1/6, 2/6, 3/6, 4/6, and 5/6) diluted to afford six quinine sulfate reference samples of evenly spaced concentration. Quinine sulfate in 0.05 M sulfuric acid was used as the quantum yield standard (Φ=0.508). By measuring the absorbance and luminescence of these dilute solutions, the quantum yields of the new Eu complexes were determined. A 5 cm path-length quartz cell was used to measure the absorbance of these dilute solutions in order to improve the UV-vis signal-to-noise. Steady state photoluminescence measurements were collected in a 1 cm fluorescence cuvette at 365 nm excitation wavelength, 1 nm resolution, 10 nm excitation slit width, 1 nm emission slit width, and 0.2 sec integration time on an instrument that has been described elsewhere (D'Aléo, A.; Moore, E. G.; Szigethy, G.; Xu, J.; Raymond, K. N. Inorg. Chem. 2009, 48, 9316.). Absorption spectra were measured at 1 nm resolution, and the absorbance of each sample was taken as the average absorbance measured from 360-370 nm to reflect the 10 nm excitation slit width used for luminescence measurements. The data derived from these experiments, and from the titration experiments in example 11 are tabulated below.

[3] = 250 mM DTPA competition experiments (kinetic stability of Eu complexes); details: 33⋅Eu versus 16⋅Eu, 43⋅Eu versus 40⋅Eu
Description: From these experiments, it is clear that 43⋅Eu is remarkably stable to a wide range of competitive metal ions and chelators. The competitor concentrations mentioned above are a good way to assess the kinetic stability of the complex in various assay conditions. DTPA is an exceptionally good ligand for lanthanide ions, and thus it is not typically used in practical assays. However, DTPA competition offers an excellent way to benchmark the kinetic stability of the complexes reported here. […] In order to compare the kinetic stability of the complexes reported here, a 750 mM stock solution (25 mL) of DTPA was prepared by dissolving DTPA (7.375 g, 18.75 mmol) into water (20 mL) containing potassium hydroxide (5.26 g, 93.75 mmol). The pH of the DTPA solution was adjusted to pH=7.6 by addition of concentrated hydrochloric acid, and then the solution was diluted to a final volume of 25 mL to give a 750 mM DTPA stock solution at pH=7.6. HPLC purified europium complexes of 16, 29, 33, 40, and 43 were separately diluted to 11 μM in TBS buffer, pH=7.6. For each DTPA competition experiment, 1 mL of the 750 mM DTPA solution was added to 2 mL of the 11 μM europium complex solution. The luminescence at 612 nm (365 nm excitation) was monitored for these five separate solutions containing 250 mM DTPA and 7.1 μM of each europium complex as a function of time.

NCCOCCNC(=O)C1CCCN(C(=O)c2cccc(=O)n2[O-])CCCNC(=O)c2ccc(n([O-])c2=O)C(=O)NC2COCC2NC(=O)c2ccc(c(=O)n2[O-])C(=O)NCCCN1C(=O)c1cccc(=O)n1[O-].[Eu+3] (mixture of isomers) [43⋅Eu]
extinction coefficient ([1]; UV-vis titration with europium chloride, TBS buffer pH 7.6, at lambda max): 12,800 M^−1 cm^−1
lambda max ([1]; UV-vis titration, TBS buffer): 357 nm
extinction coefficient, average of UV-vis and luminescence titration ([1]; at 383 nm (ligand) / 357 nm (complex)): 13,500 M^−1 cm^−1
ε at λmax ([1]; by europium titration, TBS buffer pH 7.6): 13,500 M^−1cm^−1
extinction coefficient ([1]; luminescence titration (612 nm signal, 340 nm photoexcitation), at 383 nm (ligand) / 357 nm (complex)): 14,200 M^−1 cm^−1
ε260/ε at λmax ([2]; TBS buffer, pH 7.6): 1.52
ε280/ε at λmax ([2]; TBS buffer, pH 7.6): 1.20
λmax ([2]; TBS buffer, pH 7.6): 358 nm
Φtotal at 365 nm excitation ([2]; TBS buffer, quinine sulfate as quantum yield standard): 28.8%
Lifetime ([2]; luminescence, HPLC purified Eu complexes): 734 μs
reduction in kinetic stability upon introduction of the spermine-based sidearm [3]: ~2 fold
